# What was measured:
# [1] = biological target: human recombinant PAK1-KD protein (Homo sapiens, UniProt Q13153); assay: PAK1-KD (Kinase Domain) IC50 Zlyte Assay (FRET peptide substrate phosphorylation); details: Z'-LYTE, Biological Example 1
# [2] = test system: group I PAKs in EBC1 cells (MEK1 phosphorylation at S298); assay: Cellular PAK IC50 Assay: MEK1 phosphorylation at S298 by HTRF; type: cell-based; details: Homo sapiens, EBC-1, 2 h treatment, media containing 0.1% FBS, phospho-MEK1 (S298) HTRF
# Experimental: Cellular PAK IC50 Assay Protocol
# Group I PAKs (PAK1-3) are activated upon binding to the Rho GTPases, Rac1 and Cdc42. Activated group I PAKs phosphorylate MEK1 at Serine 298 (S298), one of the two sites in the catalytic domain that is important for stable association between Raf and MEK1 and subsequent MAPK activation. The inhibition of group I PAKs in EBC1 cells is assessed by detecting changes in the level of MEK1 phosphorylation at S298 using homogenous time-resolved fluorescence (HTRF). Inhibitory activity was estimated by treating 2×10^4 EBC1 cells for 2 h with PAK inhibitors in media containing 0.1% FBS. Following inhibitor treatment, cells were lysed with 25 μL of 1× cellular kinase lysis buffer (Cisbio) containing 1× cellular kinase blocking reagent (Cisbio). Cellular lysis was carried out at 4° C. for 2 h with constant shaking before lysate (16 μL) was transferred to white 384-well ProxiPlates™ (Perkin Elmer). Anti-total MEK1 antibody labeled with Europium cryptate donor (1 ng/well) (Cell Signaling Technologies catalog number 2352) and anti-phospho MEK1 (S298) antibody labeled with d2 acceptor (Cell Signaling Technologies catalog number 9128) (10 ng/well) were prepared in 1× detection buffer (CisBio) and added to each well of the assay plate and allowed to incubate at RT overnight. The following day the fluorescence emission from each well was measured in EnVision® (Perkin Elmer) at an excitation of 330 nm and dual emission wavelengths of 615 nm and 665 nm. The signal in each well at 665 nm was multiplied by 10,000 and divided by the signal in the same well at 615 nm to obtain a ratio. Ratio values ([665·10,000]÷615) were plotted as a function of the concentration of compound to determine IC50 values.
# Sequence of human recombinant PAK1-KD protein (Q13153 270-521 limits assumed): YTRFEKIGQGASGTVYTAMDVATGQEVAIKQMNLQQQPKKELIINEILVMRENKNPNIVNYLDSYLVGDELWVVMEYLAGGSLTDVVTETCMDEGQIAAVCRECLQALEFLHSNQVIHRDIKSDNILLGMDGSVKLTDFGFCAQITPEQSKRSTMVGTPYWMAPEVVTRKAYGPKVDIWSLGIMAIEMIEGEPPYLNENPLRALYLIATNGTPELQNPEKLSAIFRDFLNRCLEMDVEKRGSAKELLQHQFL
SMILES,Ki [1] [µM],IC50 [2] [µM]
"CCNc1ncc2cc(-c3ccc(-c4cncc(C)n4)cc3Cl)c(=O)n(CCOC3CCCNC3)c2n1 (centres unmarked) [Example I-14, 6-(2-Chloro-4-(6-methylpyrazin-2-yl)phenyl)-2-(ethylamino)-8-(2-(piperidin-3-yloxy)ethyl)pyrido[2,3-d]pyrimidin-7(8H)-one]",0.0148,0.246
"CCNc1ncc2cc(-c3ccc(-c4ncccc4C)cc3Cl)c(=O)n(C[C@H]3CC[C@H](N)CC3)c2n1 [Example I-16, 8-(((1r,4r)-4-Aminocyclohexyl)methyl)-6-(2-chloro-4-(3-methylpyridin-2-yl)phenyl)-2-(ethylamino)pyrido[2,3-d]pyrimidin-7(8H)-one]",0.0072,0.0756
"CNc1ncc2cc(-c3ccc(-c4cncc(C)n4)cc3Cl)c(=O)n(CCCN)c2n1 [Example I-18, 8-(3-Aminopropyl)-6-[2-chloro-4-(6-methylpyrazin-2-yl)phenyl]-2-(methylamino)pyrido[2,3-d]pyrimidin-7-one]",0.0137,0.508
"Cc1cncc(-c2ccc(-c3cc4cnc(N)nc4n(CC4OCC(N)CO4)c3=O)c(Cl)c2)n1 (centres unmarked) [Example I-56, 2-Amino-8-[((2s,5s)-5-amino-1,3-dioxan-2-yl)methyl]-6-[2-chloro-4-(6-methylpyrazin-2-yl)phenyl]pyrido[2,3-d]pyrimidin-7-one and 2-amino-8-[((2r,5r)-5-amino-1,3-dioxan-2-yl)methyl]-6-[2-chloro-4-(6-methylpyrazin-2-yl)phenyl]pyrido[2,3-d]pyrimidin-7-one]",0.0186,0.426
"CCNc1ncc2cc(-c3ccc(-c4cccc(C)n4)cc3C)c(=O)n(CCCC(N)=O)c2n1 [Example I-70, 4-[2-(Ethylamino)-6-[2-methyl-4-(6-methyl-2-pyridyl)phenyl]-7-oxo-pyrido[2,3-d]pyrimidin-8-yl]butanamide]",0.0174,0.289
"CCNc1ncc2cc(-c3ccc(-c4cncc(C)n4)cc3Cl)c(=O)n(C3COC4(CCNC4)C3)c2n1 (centres unmarked) [Example I-75, 6-[2-Chloro-4-(6-methylpyrazin-2-yl)phenyl]-2-(ethylamino)-8-(1-oxa-7-azaspiro[4.4]nonan-3-yl)pyrido[2,3-d]pyrimidin-7-one]",0.0203,0.197
"Cc1cccc(-c2ccc(-c3cc4cnc(NCC(F)F)nc4n(CCN4CCNCC4)c3=O)c(Cl)c2)n1 [Example I-89, 6-[2-Chloro-4-(6-methyl-2-pyridyl)phenyl]-2-(2,2-difluoroethylamino)-8-(2-piperazin-1-ylethyl)pyrido[2,3-d]pyrimidin-7-one]",0.0078,0.0577

# The next compounds have a lower Ki [1] than those just listed; values first:
Ki [1] [µM],IC50 [2] [µM],SMILES
0.0058,0.18,"CCNc1ncc2cc(-c3ccc(-c4cncc(C)n4)cc3Cl)c(=O)n(CCOC3CCNC3)c2n1 (centres unmarked) [Example I-13, 6-(2-Chloro-4-(6-methylpyrazin-2-yl)phenyl)-2-(ethylamino)-8-(2-(pyrrolidin-3-yloxy)ethyl)pyrido[2,3-d]pyrimidin-7(8H)-one]"
0.0048,0.096,"CCNc1ncc2cc(-c3ccc(-c4cncc(C)n4)cc3Cl)c(=O)n(C[C@H]3CC[C@H](NC)CC3)c2n1 [Example I-17, 6-(2-Chloro-4-(6-methylpyrazin-2-yl)phenyl)-2-(ethylamino)-8-(((1r,4r)-4-(methylamino)cyclohexyl)methyl)pyrido[2,3-d]pyrimidin-7(8H)-one]"
0.0046,0.127,"CCNc1ncc2cc(-c3ccc(-c4cccc(C)n4)cc3C)c(=O)n(CCOC3CNC3)c2n1 [Example I-31, 8-(2-(azetidin-3-yloxy)ethyl)-2-(ethylamino)-6-(2-methyl-4-(6-methylpyridin-2-yl)phenyl)pyrido[2,3-d]pyrimidin-7(8H)-one]"
0.0046,0.0723,"CCNc1ncc2cc(-c3ccc(-c4cccc(C)n4)cc3Cl)c(=O)n(CC3CCNCC3)c2n1 [Example I-44, 6-(2-Chloro-4-(6-methylpyridin-2-yl)phenyl)-2-(ethylamino)-8-(piperidin-4-ylmethyl)pyrido[2,3-d]pyrimidin-7(8H)-one]"
0.0028,0.0357,"CCNc1ncc2cc(-c3ccc(-c4cccc(C)n4)cc3Cl)c(=O)n(CCOCCN)c2n1 [Example I-64, 8-[2-(2-Aminoethoxy)ethyl]-6-[2-chloro-4-(6-methyl-2-pyridyl)phenyl]-2-(ethylamino)pyrido[2,3-d]pyrimidin-7-one]"
0.0025,0.0835,"Cc1cccc(-c2ccc(-c3cc4cnc(NC5COC5)nc4n(CCOCCN)c3=O)c(C)c2)n1 [Example I-108, 8-[2-(2-aminoethoxy)ethyl]-6-[2-methyl-4-(6-methyl-2-pyridyl)phenyl]-2-(oxetan-3-ylamino)pyrido[2,3-d]pyrimidin-7-one]"
